Publication PMC10337138 (Acta Neuropathologica Communications, 2023)

Experiments:
Settings in all cases: 1 mM ATP; inhibitor
PHKG2 = PHKG2 (Homo sapiens, UniProt P15735)
Experimental: (§1) Kinase selectivity panel Kinome profiling was conducted by AssayQuant Technologies (Marlboro, MA) using Sox chromophore technology and Sox-based peptide substrates developed for human kinases in a 384-well format. Compounds were tested at 1 µM in the presence of 1 mM ATP.

PAK6 = PAK6 (Homo sapiens, UniProt Q9NQU5)
Experimental: as §1

EIF2AK2/PKR = EIF2AK2/PKR (Homo sapiens, UniProt P19525)
Experimental: as §1

GRK4 = GRK4 (Homo sapiens, UniProt P32298)
Experimental: as §1

CAMKK2 = CAMKK2 (Homo sapiens, UniProt Q96RR4)
Experimental: as §1

PRKDC/DNA-PK = PRKDC/DNA-PK (Homo sapiens, UniProt P78527)
Experimental: as §1

PRKAA2/AMPK221 = PRKAA2/AMPK221 (Homo sapiens, UniProt P54646)
Experimental: as §1

SIK2 = SIK2 (Homo sapiens, UniProt Q9H0K1)
Experimental: as §1

HIPK2 = HIPK2 (Homo sapiens, UniProt Q9H2X6)
Experimental: as §1

CDK2/E1 = CDK2/E1 (Homo sapiens, UniProt P24941)
Experimental: as §1

PRKX = PRKX (Homo sapiens, UniProt P51817)
Experimental: as §1

CHEK1/CHK1 = CHEK1/CHK1 (Homo sapiens, UniProt O14757)
Experimental: as §1

PRKG1 = PRKG1 (Homo sapiens, UniProt Q13976)
Experimental: as §1

TSSK1 = target: T1, TSSK1 (Homo sapiens, UniProt Q9BXA7)
T1 construct: gene TSSK1B
Experimental: as §1

DAPK2 = DAPK2 (Homo sapiens, UniProt Q9UIK4)
Experimental: as §1

KSR2 = KSR2 (Homo sapiens, UniProt Q6VAB6)
Experimental: as §1

EPHA4 = EPHA4 (Homo sapiens, UniProt P54764)
Experimental: as §1

MASTL = MASTL (Homo sapiens, UniProt Q96GX5)
Experimental: as §1

LRRK2 = LRRK2 (Homo sapiens, UniProt Q5S007)
Experimental: as §1

NEK5 = NEK5 (Homo sapiens, UniProt Q6P3R8)
Experimental: as §1

NDR2 = target: T2, NDR2 (Homo sapiens, UniProt Q9Y2H1)
T2 construct: gene STK38L
Experimental: as §1

MINK1 = MINK1 (Homo sapiens, UniProt Q8N4C8)
Experimental: as §1

SRPK3/MSSK1 = SRPK3/MSSK1 (Homo sapiens, UniProt Q9UPE1)
Experimental: as §1

ERBB2/HER2 = ERBB2/HER2 (Homo sapiens, UniProt P04626)
Experimental: as §1

PTK2B = PTK2B (Homo sapiens, UniProt Q14289)
Experimental: as §1

ROCK2 = ROCK2 (Homo sapiens, UniProt O75116)
Experimental: as §1

TSSK6 = TSSK6 (Homo sapiens, UniProt Q9BXA6)
Experimental: as §1

GSK3A = GSK3A (Homo sapiens, UniProt P49840)
Experimental: as §1

YES = target: T3, YES (Homo sapiens, UniProt P07947)
T3 construct: gene YES1
Experimental: as §1

MAP4K5/KSH1 = MAP4K5/KSH1 (Homo sapiens, UniProt Q9Y4K4)
Experimental: as §1

MERTK/MER = MERTK/MER (Homo sapiens, UniProt Q12866)
Experimental: as §1

CDK6/D3 = CDK6/D3 (Homo sapiens, UniProt Q00534)
Experimental: as §1

ICK = target: T4, ICK (Homo sapiens, UniProt Q9UPZ9)
T4 construct: gene CILK1
Experimental: as §1

MAP3K12 = MAP3K12 (Homo sapiens, UniProt Q12852)
Experimental: as §1

DAPK1 = DAPK1 (Homo sapiens, UniProt P53355)
Experimental: as §1

PAK1 = PAK1 (Homo sapiens, UniProt Q13153)
Experimental: as §1

RIPK1 = RIPK1 (Homo sapiens, UniProt Q13546)
Experimental: as §1

MAP3K3 = MAP3K3 (Homo sapiens, UniProt Q99759)
Experimental: as §1

PRKCZ/PKCZ = PRKCZ/PKCZ (Homo sapiens, UniProt Q05513)
Experimental: as §1

Sequence of DAPK1 (P53355 whole entry): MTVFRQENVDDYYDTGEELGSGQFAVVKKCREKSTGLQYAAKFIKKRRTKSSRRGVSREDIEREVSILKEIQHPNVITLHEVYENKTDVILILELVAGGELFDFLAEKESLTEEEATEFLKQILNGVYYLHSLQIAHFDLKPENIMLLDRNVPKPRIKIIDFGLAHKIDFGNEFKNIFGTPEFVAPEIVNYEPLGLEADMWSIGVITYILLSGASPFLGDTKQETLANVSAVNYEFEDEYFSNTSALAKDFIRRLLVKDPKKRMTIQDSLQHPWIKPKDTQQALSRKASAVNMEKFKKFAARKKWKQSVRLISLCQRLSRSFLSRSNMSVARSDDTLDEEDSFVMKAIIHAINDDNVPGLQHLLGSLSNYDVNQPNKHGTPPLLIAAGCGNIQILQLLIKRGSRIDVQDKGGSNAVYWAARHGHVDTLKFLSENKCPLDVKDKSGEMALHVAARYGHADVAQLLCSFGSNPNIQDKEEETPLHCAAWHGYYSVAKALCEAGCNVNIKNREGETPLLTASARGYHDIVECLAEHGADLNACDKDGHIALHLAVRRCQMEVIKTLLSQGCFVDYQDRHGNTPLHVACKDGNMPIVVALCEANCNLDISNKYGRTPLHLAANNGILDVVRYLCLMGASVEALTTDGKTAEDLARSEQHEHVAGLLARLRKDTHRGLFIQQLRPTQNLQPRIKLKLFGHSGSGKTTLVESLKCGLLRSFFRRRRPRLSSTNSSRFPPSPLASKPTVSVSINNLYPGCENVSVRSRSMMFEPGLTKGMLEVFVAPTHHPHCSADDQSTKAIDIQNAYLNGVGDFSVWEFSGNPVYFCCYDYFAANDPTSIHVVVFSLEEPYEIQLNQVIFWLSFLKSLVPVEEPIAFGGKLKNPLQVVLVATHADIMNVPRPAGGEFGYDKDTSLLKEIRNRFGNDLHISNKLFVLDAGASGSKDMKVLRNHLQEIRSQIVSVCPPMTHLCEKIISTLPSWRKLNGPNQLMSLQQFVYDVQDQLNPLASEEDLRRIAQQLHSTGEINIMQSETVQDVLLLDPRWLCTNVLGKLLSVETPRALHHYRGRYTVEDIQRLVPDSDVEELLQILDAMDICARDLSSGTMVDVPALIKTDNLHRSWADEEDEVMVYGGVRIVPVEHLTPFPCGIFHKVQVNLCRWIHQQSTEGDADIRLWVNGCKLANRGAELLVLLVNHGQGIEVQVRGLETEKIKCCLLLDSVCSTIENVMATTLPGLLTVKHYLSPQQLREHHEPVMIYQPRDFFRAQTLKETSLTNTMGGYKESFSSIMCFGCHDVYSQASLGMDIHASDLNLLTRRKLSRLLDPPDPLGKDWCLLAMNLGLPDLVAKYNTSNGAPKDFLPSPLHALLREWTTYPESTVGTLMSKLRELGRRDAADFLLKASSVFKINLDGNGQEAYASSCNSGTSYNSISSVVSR
Sequence of EIF2AK2/PKR (P19525 whole entry): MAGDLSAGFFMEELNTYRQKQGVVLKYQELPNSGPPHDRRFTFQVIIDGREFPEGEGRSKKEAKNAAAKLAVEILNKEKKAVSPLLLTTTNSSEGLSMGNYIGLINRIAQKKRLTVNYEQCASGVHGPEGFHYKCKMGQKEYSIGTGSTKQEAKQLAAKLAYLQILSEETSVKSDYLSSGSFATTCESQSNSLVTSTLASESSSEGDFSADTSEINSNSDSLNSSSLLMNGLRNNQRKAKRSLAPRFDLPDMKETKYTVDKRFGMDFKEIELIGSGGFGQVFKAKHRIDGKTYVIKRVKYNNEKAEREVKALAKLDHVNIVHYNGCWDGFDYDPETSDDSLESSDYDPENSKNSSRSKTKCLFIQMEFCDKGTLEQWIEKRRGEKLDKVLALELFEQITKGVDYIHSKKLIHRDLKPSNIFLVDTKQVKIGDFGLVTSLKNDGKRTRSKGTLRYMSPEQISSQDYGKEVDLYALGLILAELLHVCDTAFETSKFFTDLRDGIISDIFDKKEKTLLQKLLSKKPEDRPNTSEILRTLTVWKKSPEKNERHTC
Sequence of NEK5 (Q6P3R8 whole entry): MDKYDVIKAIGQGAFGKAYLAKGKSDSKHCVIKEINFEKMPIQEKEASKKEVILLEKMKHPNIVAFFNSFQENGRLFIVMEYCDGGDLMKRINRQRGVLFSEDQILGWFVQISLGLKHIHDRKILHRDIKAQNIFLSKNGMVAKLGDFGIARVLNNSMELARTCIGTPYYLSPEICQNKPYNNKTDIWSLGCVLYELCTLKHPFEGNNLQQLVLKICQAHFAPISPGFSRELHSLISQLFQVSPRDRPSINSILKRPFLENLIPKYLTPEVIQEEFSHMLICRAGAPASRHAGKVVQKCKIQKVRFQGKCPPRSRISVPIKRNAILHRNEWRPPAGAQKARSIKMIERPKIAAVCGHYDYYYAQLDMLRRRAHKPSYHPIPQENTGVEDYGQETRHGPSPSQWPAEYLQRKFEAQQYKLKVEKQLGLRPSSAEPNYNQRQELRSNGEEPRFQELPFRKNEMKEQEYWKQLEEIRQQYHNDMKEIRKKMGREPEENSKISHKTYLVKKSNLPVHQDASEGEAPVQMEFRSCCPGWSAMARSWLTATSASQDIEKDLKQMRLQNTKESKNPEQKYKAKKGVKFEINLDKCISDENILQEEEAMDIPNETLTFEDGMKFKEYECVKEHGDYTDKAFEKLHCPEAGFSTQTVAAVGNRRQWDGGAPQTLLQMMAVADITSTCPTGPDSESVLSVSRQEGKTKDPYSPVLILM
Sequence of MERTK/MER (Q12866 whole entry): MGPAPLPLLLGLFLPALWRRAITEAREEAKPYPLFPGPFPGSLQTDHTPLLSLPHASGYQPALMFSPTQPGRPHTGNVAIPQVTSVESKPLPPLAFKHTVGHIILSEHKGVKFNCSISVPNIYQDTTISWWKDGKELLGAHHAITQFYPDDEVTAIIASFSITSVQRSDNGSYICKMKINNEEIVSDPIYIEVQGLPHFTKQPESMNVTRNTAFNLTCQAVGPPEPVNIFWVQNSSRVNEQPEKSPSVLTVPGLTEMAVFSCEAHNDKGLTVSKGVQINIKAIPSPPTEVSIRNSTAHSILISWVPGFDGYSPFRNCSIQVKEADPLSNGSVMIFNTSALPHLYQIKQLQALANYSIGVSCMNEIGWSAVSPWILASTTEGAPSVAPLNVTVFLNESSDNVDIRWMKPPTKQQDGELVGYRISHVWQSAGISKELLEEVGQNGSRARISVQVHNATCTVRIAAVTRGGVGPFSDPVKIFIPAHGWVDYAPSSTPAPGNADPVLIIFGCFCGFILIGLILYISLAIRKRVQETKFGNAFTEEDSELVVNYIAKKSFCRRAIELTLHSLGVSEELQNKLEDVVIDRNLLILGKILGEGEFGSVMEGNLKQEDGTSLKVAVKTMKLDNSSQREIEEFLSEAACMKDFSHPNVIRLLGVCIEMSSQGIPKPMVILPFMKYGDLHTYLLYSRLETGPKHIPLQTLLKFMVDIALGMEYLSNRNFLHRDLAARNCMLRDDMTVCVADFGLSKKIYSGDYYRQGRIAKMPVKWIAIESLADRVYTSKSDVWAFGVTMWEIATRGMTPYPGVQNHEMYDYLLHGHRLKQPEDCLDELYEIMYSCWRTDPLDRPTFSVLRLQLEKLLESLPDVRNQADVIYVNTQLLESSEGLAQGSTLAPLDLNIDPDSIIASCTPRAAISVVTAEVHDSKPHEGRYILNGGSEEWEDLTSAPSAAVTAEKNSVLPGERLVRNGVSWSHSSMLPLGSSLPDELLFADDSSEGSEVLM
Sequence of GRK4 (P32298 whole entry): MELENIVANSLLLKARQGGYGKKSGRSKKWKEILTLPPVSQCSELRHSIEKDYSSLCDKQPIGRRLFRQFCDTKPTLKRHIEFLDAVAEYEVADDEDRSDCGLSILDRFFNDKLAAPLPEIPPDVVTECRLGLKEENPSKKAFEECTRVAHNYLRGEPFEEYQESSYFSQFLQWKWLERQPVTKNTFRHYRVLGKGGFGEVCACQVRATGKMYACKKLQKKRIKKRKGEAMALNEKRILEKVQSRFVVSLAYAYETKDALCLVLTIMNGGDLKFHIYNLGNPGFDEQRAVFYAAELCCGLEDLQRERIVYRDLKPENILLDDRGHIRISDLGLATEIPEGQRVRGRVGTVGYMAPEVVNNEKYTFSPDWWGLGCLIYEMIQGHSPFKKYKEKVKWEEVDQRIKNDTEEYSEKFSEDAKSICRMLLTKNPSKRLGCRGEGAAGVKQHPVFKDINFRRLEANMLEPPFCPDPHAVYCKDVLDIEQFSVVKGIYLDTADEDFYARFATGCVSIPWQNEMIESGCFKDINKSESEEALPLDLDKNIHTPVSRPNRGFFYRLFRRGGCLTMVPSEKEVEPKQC
Sequence of CDK6/D3 (Q00534 whole entry): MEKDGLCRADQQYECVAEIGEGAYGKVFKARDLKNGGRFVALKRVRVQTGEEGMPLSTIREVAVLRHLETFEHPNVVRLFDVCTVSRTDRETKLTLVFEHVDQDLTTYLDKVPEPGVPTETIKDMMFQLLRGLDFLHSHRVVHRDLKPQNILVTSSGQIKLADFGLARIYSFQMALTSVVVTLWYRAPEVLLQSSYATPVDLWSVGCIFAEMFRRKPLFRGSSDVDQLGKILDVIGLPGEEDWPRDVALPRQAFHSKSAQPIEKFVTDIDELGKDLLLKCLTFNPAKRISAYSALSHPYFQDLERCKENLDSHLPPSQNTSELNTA
Sequence of CDK6/D3 (P30281 whole entry partner): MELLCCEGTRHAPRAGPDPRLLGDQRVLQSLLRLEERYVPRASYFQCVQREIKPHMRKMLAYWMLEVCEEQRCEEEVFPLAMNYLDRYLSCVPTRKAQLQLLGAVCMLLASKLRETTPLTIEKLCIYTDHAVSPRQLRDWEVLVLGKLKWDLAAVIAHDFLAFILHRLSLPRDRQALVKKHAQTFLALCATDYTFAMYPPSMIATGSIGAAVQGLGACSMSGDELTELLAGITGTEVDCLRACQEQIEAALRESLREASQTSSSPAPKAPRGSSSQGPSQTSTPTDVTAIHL

C=CC(=O)N1CCC[C@@H](n2nc(-c3ccc(Oc4ccccc4)cc3)c3c(N)ncnc32)C1 [Ibrutinib]
1 µM GBD00276 (ibrutinib), % inhibition (PHKG2): 1.522%
1 µM GBD00276 (ibrutinib), % inhibition (PAK6): 14.55%
1 µM GBD00276 (ibrutinib), % inhibition (EIF2AK2/PKR): 0.3752%
1 µM GBD00276 (ibrutinib), % inhibition (GRK4): 18.83%
1 µM GBD00276 (ibrutinib), % inhibition (CAMKK2): 2.203%
1 µM GBD00276 (ibrutinib), % inhibition (PRKDC/DNA-PK): 1.018%
1 µM GBD00276 (ibrutinib), % inhibition (PRKAA2/AMPK221): 4.802%
1 µM GBD00276 (ibrutinib), % inhibition (SIK2): -7.577%
1 µM GBD00276 (ibrutinib), % inhibition (HIPK2): 1.01%
1 µM GBD00276 (ibrutinib), % inhibition (CDK2/E1): 1.085%
1 µM GBD00276 (ibrutinib), % inhibition (PRKX): 11.47%
1 µM GBD00276 (ibrutinib), % inhibition (CHEK1/CHK1): -3.114%
1 µM GBD00276 (ibrutinib), % inhibition (PRKG1): -6.849%
1 µM GBD00276 (ibrutinib), % inhibition (TSSK1): 5.621%
1 µM GBD00276 (ibrutinib), % inhibition (DAPK2): 19.22%
1 µM GBD00276 (ibrutinib), % inhibition (KSR2): 3.265%
1 µM GBD00276 (ibrutinib), % inhibition (EPHA4): -4.922%
1 µM GBD00276 (ibrutinib), % inhibition (MASTL): -9.51%
1 µM GBD00276 (ibrutinib), % inhibition (LRRK2): -5.334%
1 µM GBD00276 (ibrutinib), % inhibition (NEK5): 12.71%
1 µM GBD00276 (ibrutinib), % inhibition (NDR2): 11.14%
1 µM GBD00276 (ibrutinib), % inhibition (MINK1): 7.641%
1 µM GBD00276 (ibrutinib), % inhibition (SRPK3/MSSK1): 1.885%
1 µM GBD00276 (ibrutinib), % inhibition (ERBB2/HER2): 98.1%
1 µM GBD00276 (ibrutinib), % inhibition (PTK2B): 21.97%
1 µM GBD00276 (ibrutinib), % inhibition (ROCK2): 8.461%
1 µM GBD00276 (ibrutinib), % inhibition (TSSK6): 2.044%
1 µM GBD00276 (ibrutinib), % inhibition (GSK3A): 12.02%
1 µM GBD00276 (ibrutinib), % inhibition (YES): 45.59%
1 µM GBD00276 (ibrutinib), % inhibition (MAP4K5/KSH1): 14.55%
1 µM GBD00276 (ibrutinib), % inhibition (MERTK/MER): 2.725%
1 µM GBD00276 (ibrutinib), % inhibition (CDK6/D3): 7.258%
1 µM GBD00276 (ibrutinib), % inhibition (ICK): -2.761%
1 µM GBD00276 (ibrutinib), % inhibition (MAP3K12): -16.4%
1 µM GBD00276 (ibrutinib), % inhibition (DAPK1): 0.3006%
1 µM GBD00276 (ibrutinib), % inhibition (PAK1): 16.51%
1 µM GBD00276 (ibrutinib), % inhibition (RIPK1): -33.95%
1 µM GBD00276 (ibrutinib), % inhibition (MAP3K3): 0.2657%
1 µM GBD00276 (ibrutinib), % inhibition (PRKCZ/PKCZ): 7.244%
